Measurements from the supplement of paper PMC8882468.

Assays:
Assay in all cases: CTG-3D luminescence at 96 h relative to day-0 seeding control (ratio to day 0); higher = more growth / less cytotoxicity
[1] = system: HCI-001 (organoid from a triple-negative breast cancer xenograft)
Protocol: (§1)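 PDX-derived breast cancer organoids (PDxO) in 384-well Matrigel plates, 8-point dose (0.000000625-100 uM), 96 h at 37 C; CellTiter-Glo 3D luminescence normalised to the day-0 seeding control (mean of 4 technical replicates over mean of 4 day-0 wells).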

[2] = system: HCI-008 (organoid from a HER2-enriched breast cancer xenograft)
Protocol: as §1

[3] = system: HCI-010 (organoid from a breast cancer xenograft)
Protocol: as §1

[4] = system: HCI-025 (organoid from a breast cancer xenograft)
Protocol: as §1

[5] = system: HCI-025; remark: listed apart in the source
Protocol: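 PDxO 3D drug screen (set 2), 8-point dose, 96 h; CTG-3D luminescence normalised to day-0 seeding control (mean of 4 wells each).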

O=c1[nH]cc(F)c(=O)[nH]1 [5-fluorouracil]
CTG-3D luminescence at 96 h
Conditions	12.5 pM	0.00025 µM	0.005 µM	0.1 µM	1 µM	10 µM	100 µM	625 fM
[1], days in culture: 240	1.75	1.08	1.16	0.972	1.31	0.84	0.903	1.74
[1], days in culture: 260	2.43	1.07	2.1	1.43	1.62	1.42	1.14	1.09
[1], days in culture: 269	1.52	1.48	1.32	1.97	1.62	2.03	1.46	1.77
[1], days in culture: 327	1.6	1.41	2.11	1.91	1.54	1.38	1.51	1.69
[1], days in culture: 346	1.42	1.55	1.28	1.28	1.41	1.26	1.3	1.12
[1], days in culture: 364	1.68	1.19	1.35	1.35	1.13	1.21	0.902	1.55
[2], days in culture: 228	1.95	2.08	1.74	1.52	1.51	1.51	0.917	1.88
[2], days in culture: 244	1.38	1.81	2.06	1.88	1.6	1.53	1.03	2.2
[3], days in culture: 52	2.25	2.58	2.49	2.66	2.42	2.48	1.51	2.55
[3], days in culture: 65	1.67	1.68	1.87	1.73	1.83	1.73	1.18	1.66
[3], days in culture: 103	3.85	3.56	3.46	3.56	3.17	2.42	2.1	3.28
[4], days in culture: 172	2.59	1.93	3.91	1.56	1.55	0.982	0.597	2.53
[4], days in culture: 209	2.04	2.56	1.99	1.52	1.7	1.25	0.569	1.37
[4], days in culture: 218	1.7	1.9	1.92	1.65	1.37	1.61	0.855	1.86

CC/C(=C(\c1ccc(O)cc1)c1ccc(OCCN(C)C)cc1)c1ccccc1 [4-hydroxytamoxifen]
CTG-3D luminescence at 96 h, [5]
Conditions	12.5 pM	0.00025 µM	0.005 µM	0.1 µM	1 µM	10 µM	100 µM	625 fM
days in culture: 175	1.51	1.63	1.71	2.13	2.44	1.28	0.0136	1.6
days in culture: 189	2.13	1.92	1.2	1.78	1.33	0.709	0.00308	2.68
days in culture: 212	1.57	0.956	1.22	1.48	0.341	1.41	0.0176	1.14
days in culture: 224	2.08	1.8	1.69	1.65	2.16	0.525	0.00432	1.85
